Test results as given in patent US20210015764A1, “METHODS OF REDUCING INFLAMMATION OF THE DIGESTIVE SYSTEM WITH INHIBITORS OF HIF-2- ALPHA” (Peloton Therapeutics Inc., priority 2018, published 2021).
Read-outs that look alike come from different tables or passages of the source.

Assays:
786-O cells = assay: VEGF ELISA assay; assay type: cell-based; details: Homo sapiens, 786-0, VEGF in culture medium
Protocol: Each concentration was plated in duplicate. About 20 hours later, medium was removed by suction and each well was supplied with 180 μL of growth medium. About 20 μl freshly-made 10× compound stocks were added to each well. […] The EC50 was calculated by GraphPad Prism using the dose-response-inhibition (four parameter) equation. The cell-seeded plate was then subjected to CellTiter-Glo luminescence cell viability assay (Promega) by adding 50 μL of Celltiter Glo reagent into each well and shaking the plate for 8 minutes at 550 rpm (Thermomixer R, Eppendorf) then the luminescence signal immediately read in a plate reader (3 second delay, 0.5 second/well integration time, Synergy 2 multi Detection Microplate reader).

786-O-Hif-Luc cells = assay: Luciferase assay (HIF responsive element reporter); details: 24 h
Protocol: A pool of infected cells were then selected against 2 g/mL of puromycin (P8833, Sigma) for 10 days followed by limited dilution to select single clones.
Each concentration was tested in triplicate. After about 24 hours, luciferase activity was determined using ONE-Glo Luciferase Assay Reagent (E6110, Promega) following the manufacturer's recommended procedure. EC50 were calculated using Dotmatics software.

[1] = target: T1, HIF-2α HIS TAG-PASB Domain (Homo sapiens, UniProt Q99814); assay: HIF-2α Scintillation Proximity Assay (SPA); assay type: binding
T1 construct: 100 nM HIF-2α HIS TAG-PASB Domain
Protocol: The total assay volume was about 100 μL in the following configuration: 2 μL compound in 100% DMSO, 88 μL buffer with protein and probe and 10 μL of SPA beads. […] The percent inhibition was determined and IC50 values were calculated using the Dotmatics system based on the following equation: % inhibition=[(high control−sample)/(high control−low control)]×100.

DSS induced colitis = assay: DSS-induced model of colitis, two DSS cycles (Example 12); assay type: in vivo; details: female C57BI6 mice, Compound 231 60 mg/kg BID, filgotinib 30 mg/kg QD; for colon length: day 27
Protocol: 6-8 week old female C57BI6 mice were tagged and weighed, then treated with 2% dextran sulfate sodium (DSS) for 6 days. A 2 week recovery phase of regular water was completed over days 7-19. […] Mice were monitored daily and scored for body weight loss, stool consistency/diarrhea, and blood in the feces/rectum. The disease activity index was calculated according to Table 4. The second DSS cycle and treatment regimen continued for 7 days, and then on day 27 the animals were sacrificed. Colons were harvested and the texture, appearance and length of the colons assessed. Colon tissues were prepared for H&E histology, immune gene expression analysis, and immune phenotyping of immune cell infiltrate by flow cytometry. [table]

[2] = read-out: Mean Luciferase EC50 (nM)
[3] = read-out: Mean Luciferase EC50 (nM), 786-O-Hif-Luc cells, about 24 hours
[4] = probe displacement from HIF-2α PAS-B domain, read-out: Scintillation Proximity Assay IC50

T1 sequence (Q99814 240-350 limits assumed): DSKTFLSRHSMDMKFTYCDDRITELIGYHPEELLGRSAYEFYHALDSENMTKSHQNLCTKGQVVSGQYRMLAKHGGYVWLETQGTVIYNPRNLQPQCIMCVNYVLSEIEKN

SMILES | EC50 (786-O-Hif-Luc cells; [2]) | other results
O=S(=O)(c1ccc(Oc2cc(F)cc(Cl)c2)c2c1[C@H](O)CC2)C(F)F [Compound 1] |  | EC50 (786-O cells): 250 to 1000 nM
C[C@H]1C[C@@H](O)c2c(S(=O)(=O)C(F)F)ccc(Oc3cc(F)cc(Cl)c3)c21 [Compound 7a] | 250 to 1000 nM | 
O=S(=O)(c1ccc(Oc2cc(F)cc(Cl)c2)c2c1C(O)CC2)C(F)F (stereo not shown) [Compound 17] |  | EC50 (786-O cells): 50 to 249 nM
O=S(=O)(c1ccc(Oc2cc(F)cc(Cl)c2)c(Cl)c1CO)C(F)F [Compound 41] | 250 to 1000 nM | EC50 (786-O cells): 250 to 1000 nM
COCc1c(S(=O)(=O)C(F)F)ccc(Oc2cc(F)cc(Cl)c2)c1Cl [Compound 44] |  | IC50 [1]: > 1000 nM
N#Cc1cc(F)cc(Oc2ccc(S(=O)(=O)C(F)(F)F)c3c2CC[C@H]3O)c1 [Compound 57] | 50 to 249 nM | 
N#Cc1ccc(Oc2cc(F)cc(F)c2)c2c1[C@H](O)C(F)(F)C2 [Compound 67] |  | EC50 (786-O cells): 50 to 249 nM
N#Cc1cc(F)cc(Oc2ccc(S(=O)(=O)C(F)F)c3c2CCC3O)c1 (stereo not shown) [Compound 78] |  | EC50 (786-O cells): 250 to 1000 nM
O=S(=O)(c1ccc(Oc2cc(F)cc(Cl)c2)c(C(F)F)c1)C(F)(F)F [Compound 124] | 250 to 1000 nM | EC50 (786-O cells): 250 to 1000 nM
N#Cc1cc(F)cc(Oc2ccc(S(=O)(=O)C(F)F)c3c2CC[C@H]3O)c1 [Compound 155] | 50 to 249 nM | EC50 (786-O cells): 50 to 249 nM
N#Cc1cccc(Oc2ccc(S(=O)(=O)C(F)F)c3c2CC[C@H]3O)c1 [Compound 156] | 250 to 1000 nM | 
CS(=O)(=O)c1ccc(Oc2cc(F)cc(C#N)c2)c2c1[C@H](O)C(F)(F)C2 [Compound 163, (S)-3-((2,2-difluoro-1-hydroxy-7-(methylsulfonyl)-2,3-dihydro-1H-inden-4-yl)oxy)-5-fluorobenzonitrile] | < 50 nM | 
CS(=O)(=O)c1ccc(Oc2cc(F)cc(C#N)c2)c2c1[C@H](N)C(F)(F)C2 [Compound 165] | 50 to 249 nM | 
N#Cc1cc(Cl)cc(Oc2ccc(S(=O)(=O)CF)c3c2CC(F)(F)[C@H]3O)c1 [Compound 167] | < 50 nM | 
CCS(=O)(=O)c1ccc(Oc2cc(F)cc(C#N)c2)c2c1[C@H](O)C(F)(F)C2 [Compound 206] | 50 to 249 nM | 
CS(=O)(=O)c1ccc(Oc2cc(F)cc(C#N)c2)c2c1C(O)C(F)(F)C2 (stereo not shown) [Compound 223] | 50 to 249 nM | 
CS(=O)(=O)c1ccc(Oc2cc(F)cc(C#N)c2)c2c1[C@@H](O)C(F)(F)C2 [Compound 226] | > 1000 nM | 
N#Cc1cc(F)cc(Oc2ccc(S(=O)(=O)C(F)(F)F)c3c2C[C@@H](F)[C@H]3O)c1 [Compound 227] |  | EC50 (786-O-Hif-Luc cells; [3]): < 50 nM
[2H]C([2H])([2H])S(=O)(=O)c1ccc(Oc2cc(F)cc(C#N)c2)c2c1[C@]([2H])(O)C(F)(F)C2 [Compound 229] | < 50 nM | 
CS(=O)(=O)c1ccc(Oc2cc(F)cc(C#N)c2)c2c1[C@H](O)[C@H](F)C2 [Compound 231] | < 50 nM | colon length (DSS induced colitis): greatest improvement in colon length
CS(=O)(=O)c1ccc(Oc2cc(F)cc(C#N)c2)c2c1C(O)C(F)C2 (stereo not shown) [Compound 232] | < 50 nM | 
CS(=O)(=O)c1ccc(Oc2cc(Cl)cc(C#N)c2)c2c1[C@H](O)C(F)(F)C2 [Compound 234] | < 50 nM | EC50 (786-O cells): 50 to 249 nM
N#Cc1cncc(Oc2ccc(S(=O)(=O)C(F)(F)F)c3c2CC(F)(F)[C@H]3O)c1 [Compound 235] | < 50 nM | 

SMILES | EC50 (786-O-Hif-Luc cells; [2]) | other results
O=S(=O)(c1ccc(OC2=CC=CN3CC=NC23)c2c1C(O)C(F)(F)C2)C(F)(F)F (stereo not shown) [Compound 246] |  | IC50 [1, 4]: > 1000 nM
[2H][C@]1(O)c2c(S(C)(=O)=O)ccc(Oc3cc(F)cc(C#N)c3)c2CC1(F)F [Compound 247] | < 50 nM | 
CNS(=O)(=O)c1ccc(Oc2cc(F)cc(F)c2)c2c1[C@H](O)C(F)(F)C2 [Compound 251] | 50 to 249 nM | 
N#Cc1cc(F)cc(Oc2ccc(S(N)(=O)=O)c3c2CC(F)(F)[C@H]3O)c1 [Compound 252] | 50 to 249 nM | 
CNS(=O)(=O)c1ccc(Oc2cc(F)cc(C#N)c2)c2c1[C@H](O)C(F)(F)C2 [Compound 254] | 50 to 249 nM | 
NS(=O)(=O)c1ccc(Oc2cc(F)cc(F)c2)c2c1[C@H](O)C(F)(F)C2 [Compound 256] | < 50 nM | 
N#Cc1cc(F)cc(Oc2ccc(S(=O)(=O)C(F)(F)F)c3c2CCC3O)c1 (stereo not shown) [Compound 258] | > 1000 nM | 
CS(=O)(=O)c1ccc(Oc2cc(F)cc(C#N)c2)c2c1[C@H](O)[C@@H](F)C2 [Compound 271] | 250 to 1000 nM | 
O=S(=O)(c1ccc(Oc2cc(F)cc(Cl)c2)c2c1[C@H](O)C[C@@H]2CO)C(F)(F)F [Compound 281] |  | IC50 [1, 4]: 250 to 1000 nM
CS(=O)(=O)c1ccc(Oc2cc(F)cc(C#N)c2)c2c1[C@H](O)[C@H](F)[C@@H]2F [Compound 289, 3-[(1S,2S,3R)-2,3-difluoro-1-hydroxy-7-methylsulfonyl-indan-4-yl]oxy-5-fluoro-benzonitrile] | < 50 nM | 
N#Cc1cc(F)cc(Oc2ccc(S(=O)(=O)C(F)(F)F)c3c2CC(F)(F)[C@H]3N)c1 [Compound 290] | 50 to 249 nM | 
N#Cc1cc(F)cc(Oc2ccc(S(N)(=O)=O)c3c2[C@@H](F)C(F)(F)[C@H]3O)c1 [Compound 338] | < 50 nM | 
N#Cc1cc(F)cc(Oc2ccc(S(N)(=O)=O)c3c2[C@H](F)C(F)(F)[C@H]3O)c1 [Compound 339] | 250 to 1000 nM | 
N#Cc1cc(F)cc(Oc2ccc3c(c2Br)C(N)C(F)(F)S3(=O)=O)c1 (stereo not shown) [Compound 376] |  | IC50 [1, 4]: < 50 nM; EC50 (786-O-Hif-Luc cells; [3]): > 1000 nM
O=S1(=O)c2ccc(OC3CCOCC3)c(C(F)F)c2C(O)C1(F)F (stereo not shown) [Compound 400] |  | IC50 [1, 4]: > 1000 nM; EC50 (786-O-Hif-Luc cells; [3]): > 1000 nM
N#Cc1cc(F)cc(-c2cnc(C(F)(F)F)c3c2C[C@@H](F)[C@H]3O)c1 [Compound 471] |  | IC50 [1, 4]: 250 to 1000 nM
CCCNc1ccc(S(=O)(=O)C(F)F)c2c1CC(F)(F)[C@H]2O [Compound 532] |  | IC50 [1, 4]: < 50 nM; EC50 (786-O-Hif-Luc cells; [3]): 250 to 1000 nM
O=S(=O)(c1ccc(OC2CC(O)C2)c2c1[C@H](O)C(F)(F)C2)C(F)(F)F (stereo partly shown) [Compound 644] |  | EC50 (786-O-Hif-Luc cells; [3]): 250 to 1000 nM
O=C1CCC(Oc2ccc(S(=O)(=O)C(F)(F)F)c3c2CC(F)(F)[C@H]3O)CN1 (stereo partly shown) [Compound 719] |  | IC50 [1, 4]: > 1000 nM
CC(C)(C)OC(=O)NC1CC(Oc2ccc(S(=O)(=O)C(F)(F)F)c3c2CC(F)(F)[C@H]3O)C1 (stereo partly shown) [Compound 722] |  | EC50 (786-O-Hif-Luc cells; [3]): > 1000 nM
O=S(=O)(c1ccc(OC2CCOCC2)c2c1[C@@H](O)C(F)(F)C2)C(F)F [Compound 782] |  | IC50 [1, 4]: 50 to 249 nM; EC50 (786-O-Hif-Luc cells; [3]): 50 to 249 nM
O=C(Nc1nc2cccc(-c3ccc(CN4CCS(=O)(=O)CC4)cc3)n2n1)C1CC1 [filgotinib] |  | colon length (DSS induced colitis): This effect was reversed; disease activity index score (DSS induced colitis; second DSS cycle ([…] DSS, 7 days), vehicle group 6-7): slight decrease in the disease activity index, but only in the later stage of the disease progression
